According to patent publication EP1799816B1, “NOVEL LACCASE ENZYME AND USE THEREOF” (AB Enzymes Oy, priority 2004, dated 2006):
Read-outs that look alike come from different tables or passages of the source.

Experiments:
[1] = target: T1, recombinant Thielavia arenaria TaLcc1 laccase (rTaLcc1) expressed in Trichoderma reesei, SEQ ID NO: 12 (Canariomyces arenarius, UniProt F6N9E7); assay type: biochemical
T1 sequence (F6N9E7 22-604): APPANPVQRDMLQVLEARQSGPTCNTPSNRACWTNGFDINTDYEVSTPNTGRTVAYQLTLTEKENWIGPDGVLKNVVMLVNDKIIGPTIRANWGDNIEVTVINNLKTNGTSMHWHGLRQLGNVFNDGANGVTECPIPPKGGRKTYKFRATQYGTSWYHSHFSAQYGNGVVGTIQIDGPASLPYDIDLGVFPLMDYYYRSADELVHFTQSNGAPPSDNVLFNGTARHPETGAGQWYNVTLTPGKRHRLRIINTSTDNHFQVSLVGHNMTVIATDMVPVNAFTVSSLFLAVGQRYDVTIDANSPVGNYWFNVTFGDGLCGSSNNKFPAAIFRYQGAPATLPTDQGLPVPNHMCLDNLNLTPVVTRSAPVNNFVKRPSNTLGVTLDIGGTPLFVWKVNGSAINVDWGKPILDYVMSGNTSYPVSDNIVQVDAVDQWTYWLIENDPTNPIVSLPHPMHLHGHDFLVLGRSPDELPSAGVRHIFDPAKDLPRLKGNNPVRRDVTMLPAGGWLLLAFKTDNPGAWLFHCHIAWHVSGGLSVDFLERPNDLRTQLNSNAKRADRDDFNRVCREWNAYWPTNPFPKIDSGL
Method: (§1) On syringaldazin and DMP 40 mM MES buffer, pH 6 and 25 mM succinate bluffer, All activity assays were carried out at 25°C. Kinetic parameters were estimated by a nonlinear regression curve fit. The values were compared to those of Melanocarpus albomyces MaL, laccase.

[2] = target: T2, Melanocarpus albomyces laccase MaL (Melanocarpus albomyces, UniProt Q70KY3); assay: Kinetic parameters (Km, kcat, kcat/Km) on laccase substrates; assay type: biochemical; details: substrate ABTS; 25 mM succinate buffer, pH 4.5, 25°C; comparison enzyme
T2 sequence (Q70KY3 51-609): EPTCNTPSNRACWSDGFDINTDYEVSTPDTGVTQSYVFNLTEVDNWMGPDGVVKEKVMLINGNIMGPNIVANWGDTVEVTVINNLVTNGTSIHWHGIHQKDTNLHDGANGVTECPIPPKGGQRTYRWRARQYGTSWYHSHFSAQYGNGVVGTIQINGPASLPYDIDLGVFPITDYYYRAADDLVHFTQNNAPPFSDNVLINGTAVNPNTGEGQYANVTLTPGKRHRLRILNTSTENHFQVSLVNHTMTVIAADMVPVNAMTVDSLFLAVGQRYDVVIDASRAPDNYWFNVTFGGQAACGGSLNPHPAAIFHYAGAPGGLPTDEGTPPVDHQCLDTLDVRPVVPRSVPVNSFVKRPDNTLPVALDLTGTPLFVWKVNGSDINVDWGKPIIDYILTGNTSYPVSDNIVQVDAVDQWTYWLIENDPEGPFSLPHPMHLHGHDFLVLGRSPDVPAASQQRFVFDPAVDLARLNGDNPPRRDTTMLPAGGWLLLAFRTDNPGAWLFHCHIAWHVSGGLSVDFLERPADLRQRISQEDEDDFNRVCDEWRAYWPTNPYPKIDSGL
Method: as §1

SMILES | kcat ([1]; substrate ABTS, 25 mM succinate buffer, pH 4.5, 25°C) [s⁻¹] | Km [2] [µM] | kcat [2] [s⁻¹] | kcat ([1]; substrate Syringaldazin, 25°C, buffer unclear (40 mM MES buffer, pH 6 / 25 mM succinate buffer)) [s⁻¹]
CCn1c(=NN=c2sc3cc(S(=O)(=O)O)ccc3n2CC)sc2cc(S(=O)(=O)O)ccc21 [ABTS, 2,2'azinobis-3-ethylbenzthiazole-6-sulphonate] | 68.83 | 270 | 78.17 | 
COc1cc(C=NN=Cc2cc(OC)c(O)c(OC)c2)cc(OC)c1O [Syringaldazin, syringaldazine] |  |  |  | 32.33
